{
  "source": "patent US6063803A",
  "about": "“Octahydropyrrolo-[3,4-c]carbazoles useful as analgesic agents” (Ortho-McNeil Pharmaceutical, Inc., priority 1999, dated 2000)",
  "key": {"[1]": {"experiment": "mouse hot plate assay (48° C.)", "assay_type": "in vivo, mice", "settings": "mouse hot plate 48° C.", "method": "The test was essentially described by N. Eddy and D. Leimbach, Synthetic Analgesics II Dithienylbutenyl- and Dithienylbutylamines, J. Pharmacol. Exp. Ther., 107, 385-93 (1953) and J. O'Callaghan and S. Holtzman, Qualification of the Analgesic Activity of Narcotic Antagonists by a Modified Hot-Plate Procedure, J. Pharmacol. Exp. Ther, 192, 497-505 (1975), with minor modifications. Mice were placed on a heated surface (48° C.) and the time interval (seconds) between placement and a shaking, licking, or tucking of the hind paw was recorded as the predrug latency response. This procedure was repeated 30 minutes after the administration of a test compound (p.o., 10 mL/kg). The percent maximum possible antinociceptive effect (% MPE) was determined using the following formula: % MPE=100×(Test latency-Predrug latency)/(Cutoff time-Predrug Latency), using the predrug latency of each animal and cutoff time established to prevent injury to the animal. The cutoff time was 90s.\nThe ED50 value and 95% confidence intervals were determined using a computer-assisted linear regression analysis of the dose-response curve, including an analysis of variance test for linearity. Oral dosing of Compound 58 produced an analgesic effect after 15 min. This effect lasted for one hour."}, "[2]": {"experiment": "rat air-induced writhing (abdominal constriction) assay", "assay_type": "in vivo, rats", "settings": "rat air-induced writhing", "method": "The analgesic activity was determined in another model using rats as the test animal. The procedure was essentially described by P. VonVoightlander et al. in Air-induced Writhing, a Rapid Broad Spectrum Assay for Analgesics, Drug Dev. Res., 2, 577-81, (1982). The test compound or vehicle was administered p.o. (2 mL/kg) and after 30 min, the animals received an i.p. injection of air (10 mL). The animals were placed into individual observation chambers and observed for 30 min for the occurrence of abdominal constriction as defined above. The percent inhibition of this response was calculated as follows. The % inhibition of response, i.e., % analgesia is equal to the number nonresponding drug-treated animals×100 divided by the number of animals in the group. […] This effect lasted for 2-3 hours."}, "[3]": {"biological_target": "α1-adrenergic receptor", "experiment": "α1-adrenergic receptor binding (3H-prazosin displacement, rat cortex membranes)", "set-up": "species or system rat (Wistar)", "settings": "3H-prazosin 0.05 nM, 25° C., 20 min", "excerpt": "Charles River male Wistar (virus-free) rats were group housed for approximately one week and given food and water (Wayne Lab Blox) ad libitum. Animals were exposed to equal hours(12--12) of dark and light and used at a weight range of 150-280 g (8 to 10 weeks of age). Rats were sacrificed by cervical dislocation and their brains were rapidly excised and immediately placed on ice. The cortex was removed, weighed, and used immediately or frozen on dry ice.\nThe frozen tissue was homogenized in 20 volumes of HEPES buffered sucrose (10 mM HEPES, 300 mM sucrose, pH 7.5) using a motor driven Teflon pestle/glass homogenizer (all homogenates and solutions were maintained at 4-8° C.). The homogenate was centrifuged at 1000×g for 10 minutes, and the supernatant was recentrifuged at 48,000×g for 10 min. […]\nThe samples were incubated in a 25° C. water bath for 20 min, harvested on a Brandel Cell Harvester on to Wallac filtermat-B sheets (96 sample format), washed three times with 2 mL cold HEPES-buffer (10 mM, pH 7.5), and dried in a microwave oven. To each sample area 80 ul of Betaplate Scint scintillation fluid (LKB) was added and analyzed on a LKB (Wallac) 1205 BetaPlate liquid scintillation counter.\nThe data were used to calculate either the % inhibition compared to control binding (a single concentration of test compound is evaluated) or a Ki value (a range of concentrations are tested). […]"}, "[4]": {"experiment": "mouse acetylcholine bromide-induced abdominal constriction assay", "assay_type": "in vivo, mice (Male, Cr1:CD-1)", "method": "The analgesic activity of compounds of Formula I were determined in the following in vivo assay. The procedure was run essentially as described by H. Collier et al. in B. J. Pharmacol. Chemother., 32: 295-310, 1968, with minor modifications. Mice (Male, Cr1:CD-1, Charles River Laboratories) were used in the following example. The test drugs or appropriate vehicle were administered orally (10 mL/kg, p.o.) or subcutaneously (10 mL/kg, s.c.) and 30 minutes later the animal received an intraperitoneal (i.p.) injection of 5.5 mg/kg acetylcholine bromide. The mice were then placed in glass bell jars and observed for a ten minute observation period for the occurrence of an abdominal constriction response (defined as a wave of constriction and elongation passing caudally along the abdominal wall, accompanied by a twisting of the trunk and followed by extension of the hind limbs). The percent inhibition of this response to antinociceptive stimulus (equated to % analgesia) was calculated as follows: The % inhibition of response, i.e., % analgesia is equal to the number of non-responding drug-treated animals×100 divided by the number of animals in the group.\nThe ED50 values and their 95% fiducial limits were determined by a computer assisted probit analysis. […] This effect lasted for 4-5 hours.\nTable A lists the % inhibition for some compounds of the invention. Unless otherwise indicated the compounds were administered s.c. at 30 mg/kg. [drawing 63]"}, "[5]": {"settings": "mouse abdominal constriction, oral dosing"}},
  "data": [
    {"smiles": "CN1CC2CCc3[nH]c4ccccc4c3C2C1", "note": "(single isomer, unassigned) [Compound 58]", "values": [
      {"measurement": "analgesic effect, time after oral dosing", "setting": "[1]; oral dosing", "result": 15, "unit": "min"},
      {"measurement": "ED50", "setting": "[1]; po, 0.5 h, p.o., cutoff 90s, read-out: ED50", "result": 14.2, "unit": "mg/kg"},
      {"measurement": "ED50", "setting": "[2]; po, p.o., read-out: ED50", "result": 23.1, "unit": "mg/kg"},
      {"measurement": "analgesic effect observed, time after oral dosing", "setting": "[2]; oral dosing", "result": 30, "unit": "min"},
      {"measurement": "duration of analgesic effect", "setting": "[2]; oral dosing", "result": "2 to 3", "unit": "h"},
      {"measurement": "Ki", "setting": "[3]", "result": 61, "unit": "nM"},
      {"measurement": "responders at 30 mg/kg", "setting": "[4]; Mus musculus, 0.5 h, 30 mg/kg po, acetylcholine bromide 5.5 mg/kg i.p. 30 min later, read-out: % inhibition @ 30 mg/kg (po)", "result": 100, "unit": "%"},
      {"measurement": "analgesic effect observed, time after oral dosing", "setting": "[4]; [5]", "result": 15, "unit": "min"},
      {"measurement": "duration of analgesic effect", "setting": "[4]; [5]", "result": "4 to 5", "unit": "h"},
      {"measurement": "ED50", "setting": "[4]; mouse acetylcholine abdominal constriction, probit analysis, read-out: ED50", "result": 5.8, "unit": "mg/kg"}
    ]}
  ]
}
